From US9944654B2, “Nargenicin compounds and uses thereof as antibacterial agents” (priority 2014, dated 2018)
Values after ≈ are worked out from the molar mass of the structure shown. Where two headings read alike, the source gives them in different places.

What was measured:
[1] = target: T1, S. aureus DnaE (DNA polymerase III α-subunit homolog from Staphylococcus aureus) (Staphylococcus aureus, UniProt Q5HF71); experiment: biochemical; format: biochemical
T1 construct: SaDnaE (S. aureus DnaE residues 1-1065); 6xHis (N); made in house; host or cells: E. coli BL21-AI
T1 sequence (Q5HF71 1-1065): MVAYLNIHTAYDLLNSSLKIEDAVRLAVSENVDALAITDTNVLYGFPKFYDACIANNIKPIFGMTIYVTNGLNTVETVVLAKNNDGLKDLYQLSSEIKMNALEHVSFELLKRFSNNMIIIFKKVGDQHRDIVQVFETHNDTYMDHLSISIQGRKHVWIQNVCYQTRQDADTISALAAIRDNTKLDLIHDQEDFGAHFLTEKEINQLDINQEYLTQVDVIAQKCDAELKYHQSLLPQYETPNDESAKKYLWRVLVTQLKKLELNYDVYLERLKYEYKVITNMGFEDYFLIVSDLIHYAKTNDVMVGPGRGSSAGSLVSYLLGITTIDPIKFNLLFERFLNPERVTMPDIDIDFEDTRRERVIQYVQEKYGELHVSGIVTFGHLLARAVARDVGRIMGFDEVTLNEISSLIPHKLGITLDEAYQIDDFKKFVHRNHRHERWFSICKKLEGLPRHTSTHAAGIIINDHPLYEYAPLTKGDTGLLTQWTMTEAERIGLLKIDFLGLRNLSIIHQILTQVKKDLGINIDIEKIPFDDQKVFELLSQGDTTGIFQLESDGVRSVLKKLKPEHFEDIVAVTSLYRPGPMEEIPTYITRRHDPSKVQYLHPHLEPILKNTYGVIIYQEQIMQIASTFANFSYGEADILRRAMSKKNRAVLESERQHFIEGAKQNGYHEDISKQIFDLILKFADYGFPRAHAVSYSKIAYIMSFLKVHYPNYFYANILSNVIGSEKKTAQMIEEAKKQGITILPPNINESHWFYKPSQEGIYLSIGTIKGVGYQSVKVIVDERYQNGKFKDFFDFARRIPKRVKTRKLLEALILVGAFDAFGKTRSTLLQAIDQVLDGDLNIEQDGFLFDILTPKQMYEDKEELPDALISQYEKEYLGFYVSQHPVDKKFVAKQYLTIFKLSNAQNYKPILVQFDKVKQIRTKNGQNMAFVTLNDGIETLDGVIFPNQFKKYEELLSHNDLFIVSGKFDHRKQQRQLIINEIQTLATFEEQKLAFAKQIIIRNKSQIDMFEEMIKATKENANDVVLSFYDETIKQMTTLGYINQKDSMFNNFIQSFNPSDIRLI
Outline: (§1)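 3H-dTTP (0.011 mM) incorporation into DNase I-activated calf thymus DNA, alongside the other three dNTPs at 0.025 mM, measured by filter counting after TCA precipitation. Reactions ran 30 min at 30° C., started with purified N-His DnaE: 0.8 μg/ml for E. coli, 0.05 μg/ml for S. aureus.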

[2] = tested on: Pseudomonas aeruginosa MB5890 (CB1101, efflux-deleted); experiment: microbe, parasite or virus in culture; format: cell-based; conditions: Pseudomonas aeruginosa, read-out: P. aeruginosa MB5890 efflux-del (MIC), MHII broth; * = some reduction of growth versus control at […]
[3] = tested on: Streptococcus pneumoniae MB6357 (CL 2883); experiment: Nargenicin antibacterial assay (MIC), S. pneumoniae; format: cell-based; conditions: Streptococcus pneumoniae, read-out: S. pneumoniae MB2883 (MIC), Isosensitest broth; * = some reduction of growth versus control at […]
[4] = target: T2, E. coli DnaE (DNA polymerase III α-subunit from Escherichia coli) (Escherichia coli, UniProt P10443); experiment: In vitro DnaE single enzyme assay (E. coli); format: biochemical
T2 construct: EcDnaE (E. coli DnaE residues 1-1160); 6xHis (N); made in house; host or cells: E. coli BL21(DE3)
Outline: as §1

[5] = tested on: Staphylococcus aureus MB6266 (MRSA COL); experiment: Nargenicin antibacterial assay (MIC), S. aureus; format: cell-based; conditions: Staphylococcus aureus, MRSA, read-out: S. aureus COL (MIC), MHII broth + 50% human serum; * = some reduction of growth versus control at […]
[6] = tested on: Escherichia coli MB5747 (LS 883, tolC); experiment: microbe, parasite or virus in culture; format: cell-based; conditions: Escherichia coli, read-out: E. coli LS883 tolC (MIC), MHII broth; * = some reduction of growth versus control at […]
[7] = read-out: E. coli DnaE IC50 (converted)
[8] = read-out: S. aureus DnaE IC50 (converted)

T2 sequence (P10443 whole entry, the tested form may be a part): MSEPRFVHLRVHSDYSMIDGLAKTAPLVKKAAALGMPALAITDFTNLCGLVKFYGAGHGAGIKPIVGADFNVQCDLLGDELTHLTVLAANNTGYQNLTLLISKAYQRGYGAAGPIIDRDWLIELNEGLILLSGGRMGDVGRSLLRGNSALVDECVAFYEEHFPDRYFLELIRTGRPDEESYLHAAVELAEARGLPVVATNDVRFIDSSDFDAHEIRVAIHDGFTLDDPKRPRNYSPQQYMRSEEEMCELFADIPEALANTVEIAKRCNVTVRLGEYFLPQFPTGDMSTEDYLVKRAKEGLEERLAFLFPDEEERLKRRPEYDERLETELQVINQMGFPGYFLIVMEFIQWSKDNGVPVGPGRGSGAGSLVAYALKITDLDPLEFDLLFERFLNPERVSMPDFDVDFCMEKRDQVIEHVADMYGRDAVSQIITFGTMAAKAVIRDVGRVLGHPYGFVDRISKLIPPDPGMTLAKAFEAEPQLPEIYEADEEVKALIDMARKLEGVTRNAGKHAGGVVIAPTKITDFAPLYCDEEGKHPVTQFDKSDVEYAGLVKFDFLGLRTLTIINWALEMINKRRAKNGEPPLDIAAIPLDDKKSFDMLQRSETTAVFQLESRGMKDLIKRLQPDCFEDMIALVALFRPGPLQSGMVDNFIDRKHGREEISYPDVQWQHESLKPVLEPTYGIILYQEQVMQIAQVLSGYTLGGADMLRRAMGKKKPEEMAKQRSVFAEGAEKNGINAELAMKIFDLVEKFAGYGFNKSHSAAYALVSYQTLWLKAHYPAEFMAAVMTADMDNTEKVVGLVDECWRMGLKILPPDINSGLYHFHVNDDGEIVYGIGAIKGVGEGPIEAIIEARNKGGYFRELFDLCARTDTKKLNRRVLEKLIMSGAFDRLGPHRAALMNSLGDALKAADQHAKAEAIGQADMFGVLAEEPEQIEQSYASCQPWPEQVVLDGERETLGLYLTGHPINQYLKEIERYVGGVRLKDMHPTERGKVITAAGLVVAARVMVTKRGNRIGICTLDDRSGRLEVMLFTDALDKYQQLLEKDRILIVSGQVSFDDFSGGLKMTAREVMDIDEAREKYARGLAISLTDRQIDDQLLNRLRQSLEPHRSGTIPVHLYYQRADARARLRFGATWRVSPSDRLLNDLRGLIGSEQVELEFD

| SMILES | IC50 ([1]; S. aureus DnaE IC50) [µM] | MIC [2] [µg/mL] | MIC [3] [µg/mL] | IC50 [4, 7] [µM] | MIC [5] [µg/mL] | MIC [6] [µg/mL] | IC50 [1, 8] [µM] | IC50 ([4]; E. coli DnaE IC50) [µM] |
| --- | --- | --- | --- | --- | --- | --- | --- | --- |
| CCCCCCCCNC(=O)O[C@H](C)[C@H]1OC(=O)[C@@H](OC)C[C@H]2C=C[C@H]3[C@H]4O[C@]2(/C(C)=C/[C@H]1C)[C@@H]3[C@H](O)[C@@H](C)[C@H]4OC(=O)c1ccc[nH]1 [Example 14] | 0.119 | > 128 | 32 (≈ 47.7 µM) | 16.4 | > 128 | > 128 | – | – |
| CO[C@H]1CC2C=C[C@H]3[C@H]4O[C@]2(/C(C)=C/[C@@H](C)[C@@H]([C@@H](C)OC(=O)NCCO)OC1=O)[C@@H]3[C@H](O)[C@@H](C)[C@H]4OC(=O)c1ccc[nH]1 (stereo partly drawn) [Example 15] | < 0.00996 | 128 (≈ 212 µM) | > 128 | ~183 | 8 | 4 (≈ 6.64 µM) | – | – |
| CO[C@H]1CC2C=C[C@H]3[C@H]4O[C@]2(/C(C)=C/[C@@H](C)[C@@H]([C@@H](C)OC(=O)NCC(N)=O)OC1=O)[C@@H]3[C@H](O)[C@@H](C)[C@H]4OC(=O)c1ccc[nH]1 (stereo partly drawn) [Example 16] | – | 128 (≈ 208 µM) | > 128 | – | 32 | 4 (≈ 6.5 µM) | < 0.00975 | 97.5 |
| CO[C@H]1C[C@H]2C=C[C@H]3[C@H]4O[C@]2(/C(C)=C/[C@@H](C)[C@@H]([C@@H](C)OC(=O)NCc2ccc(O)c(O)c2)OC1=O)[C@@H]3[C@H](O)[C@@H](C)[C@H]4OC(=O)c1ccc[nH]1 [Example 17] | < 0.00881 | > 128 | > 128 | 22 | 8 | 8 (≈ 11.8 µM) | – | – |
| CO[C@H]1CC2C=C[C@H]3[C@H]4O[C@]2(/C(C)=C/[C@@H](C)[C@@H]([C@@H](C)OC(=O)NN)OC1=O)[C@@H]3[C@H](O)[C@@H](C)[C@H]4OC(=O)c1ccc[nH]1 (stereo partly drawn) [Example 18] | < 0.0105 | > 128 | 128 (≈ 223 µM) | 105 | 8 | 4 (≈ 6.97 µM) | – | – |
| CO[C@H]1C[C@H]2C=C[C@H]3[C@H]4O[C@]2(/C(C)=C/[C@@H](C)[C@@H]([C@@H](C)OC(=O)N2CCOCC2)OC1=O)[C@@H]3[C@H](O)[C@@H](C)[C@H]4OC(=O)c1ccc[nH]1 [Example 20] | < 0.00954 | > 128 | 32 (≈ 50.9 µM) | > 159 | 8 | 8 (≈ 12.7 µM) | – | – |
| CO[C@H]1C[C@H]2C=C[C@H]3[C@H]4O[C@]2(/C(C)=C/[C@@H](C)[C@@H]([C@@H](C)OC(=O)NC(C)(CO)CO)OC1=O)[C@@H]3[C@H](O)[C@@H](C)[C@H]4OC(=O)c1ccc[nH]1 [Example 21] | < 0.00928 | 128 (≈ 198 µM) | 128 (≈ 198 µM) | > 155 | 16 | 8 (≈ 12.4 µM) | – | – |
| CO[C@H]1C[C@H]2C=C[C@H]3[C@H]4O[C@]2(/C(C)=C/[C@@H](C)[C@@H]([C@@H](C)OC(=O)NNC(N)=O)OC1=O)[C@@H]3[C@H](O)[C@@H](C)[C@H]4OC(=O)c1ccc[nH]1 [Example 23] | < 0.00973 | 64 (≈ 104 µM) | > 128 | 48.6 | 8 | 4 (≈ 6.49 µM) | – | – |
| COC1CC2C=CC3C4OC2(C(C)=CC(C)C(C(C)OC(=O)NCCN2CCN(C)CC2)OC1=O)C3C(O)C(C)C4OC(=O)c1ccc[nH]1 (stereo not drawn) [Example 24] | – | > 128 | > 128 | – | 32 | 32 (≈ 46.7 µM) | 0.00876 | > 146 |
| COC1CC2C=CC3C4OC2(C(C)=CC(C)C(C(C)OC(=O)NCCCN2CCN(C)CC2)OC1=O)C3C(O)C(C)C4OC(=O)c1ccc[nH]1 (stereo not drawn) [Example 25] | – | > 128 | > 128 | – | 32 | 32 (≈ 45.8 µM) | 0.03 | > 143 |
| COC(=O)O[C@H](C)[C@H]1OC(=O)[C@@H](OC)CC2C=C[C@H]3[C@H]4O[C@]2(/C(C)=C/[C@H]1C)[C@@H]3[C@H](O)[C@@H](C)[C@H]4OC(=O)c1ccc[nH]1 (stereo partly drawn) [Example 27] | < 0.0105 | > 128 | 64 (≈ 112 µM) | 61 | 2 | 4 (≈ 6.97 µM) | – | – |
| CO[C@H]1C[C@H]2C=C[C@H]3[C@H]4O[C@]2(/C(C)=C/[C@@H](C)[C@@H]([C@@H](C)OC(=O)OCC(C)(N)CO)OC1=O)[C@@H]3[C@H](O)[C@@H](C)[C@H]4OC(=O)c1ccc[nH]1.O=C(O)C(F)(F)F (stereo partly drawn) [Example 28] | ~0.00657 | 32 | 128 | > 131 | 2 | 2 | – | – |
| CO[C@H]1C[C@H]2C=C[C@H]3[C@H]4O[C@]2(/C(C)=C/[C@@H](C)[C@@H]([C@@H](C)OC(=O)OCCO)OC1=O)[C@@H]3[C@H](O)[C@@H](C)[C@H]4OC(=O)c1ccc[nH]1 [Example 30] | < 0.00994 | 16 (≈ 26.5 µM) | 64 (≈ 106 µM) | 116 | 0.5 | 1 (≈ 1.66 µM) | – | – |
| COC1CC2C=CC3C4OC2(C(C)=CC(C)C(C(C)OC(=O)OCCN(CCO)CCO)OC1=O)C3C(O)C(C)C4OC(=O)c1ccc[nH]1 (stereo not drawn) [Example 32] | ~0.00651 | 64 (≈ 92.6 µM) | > 128 | > 145 | 2 | 2 (≈ 2.9 µM) | – | – |
| CO[C@H]1C[C@H]2C=C[C@H]3[C@H]4O[C@]2(/C(C)=C/[C@@H](C)[C@@H]([C@@H](C)OC(=O)OC(C)C)OC1=O)[C@@H]3[C@H](O)[C@@H](C)[C@H]4OC(=O)c1ccc[nH]1 [Example 33] | 0.0349 | > 128 | 8 (≈ 13.3 µM) | 58.2 | 32 | > 64 | – | – |
| CO[C@H]1C[C@H]2C=C[C@H]3[C@H]4O[C@]2(/C(C)=C/[C@@H](C)[C@@H]([C@@H](C)OC(=O)OCC(CO)CO)OC1=O)[C@@H]3[C@H](O)[C@@H](C)[C@H]4OC(=O)c1ccc[nH]1 [Example 36] | < 0.00926 | 64 (≈ 98.8 µM) | > 128 | 17 | 2 | 2 (≈ 3.09 µM) | – | – |
| CO[C@H]1C[C@H]2CC[C@H]3[C@H]4O[C@]2(/C(C)=C/[C@@H](C)[C@@H]([C@@H](C)O)OC1=O)[C@@H]3[C@H](O)[C@@H](C)[C@H]4OC(=O)c1ccc[nH]1 [Example 37, (3R,4S,7S,8aR,10aR,11R,12R,13R,14R,14aS,14bS,E)-14-hydroxy-4-((R)-1-hydroxyethyl)-7-methoxy-1,3,13-trimethyl-6-oxo-3,4,6,7,8,8a,9,10,10a,11,12,13,14,14a-tetradecahydro-11,14b-epoxynaphtho[2,1-e]oxecin-12-yl 1H-pyrrole-2-carboxylate] | < 0.0966 | 128 (≈ 247 µM) | > 128 | – | > 8 | > 8 | – | > 193 |
